Paper PMC11858513, “Antibiofilm Activities of Tritrpticin Analogs Against Pathogenic Pseudomonas aeruginosa PA01 Strains” (Molecules, 2025)
Values after ≈ are worked out from the molar mass of the structure shown. Residues, ends and D or L forms follow the SMILES beside them.

Experiments:
P. aeruginosa PAO1 GFP [1] = assay: MIC against planktonic cells, absorbance at 600 nm; format: cell-based, Pseudomonas aeruginosa; settings: Table 2, BM2 medium, absorbance 600 nm, mean of three biological replicates
Method: (§1) Figure 1 The MIC (A), MBIC (B) and MBEC (C) values for the tritrpticin analog peptides were assessed against Pa PAO1 GFP. The MIC values were determined by measuring the absorbance of bacterial cells at 600 nm. The MBIC and MBEC values were determined by recording the fluorescence at 480 nm and 530 nm from the biofilms of GFP-expressing PAO1. Three biological replicates were run for each test sample, and the mean was calculated for the recorded absorption or fluorescence values. In the graphs, the error bars represent the standard deviation (±SD).
(§2) Figure 2 The MIC (A), MBIC (B) and MBEC (C) values for the tritrpticin-Lys derivative peptides were assessed against Pa PAO1 GFP. The MIC values were determined by measuring the absorbance of bacterial cells at 600 nm. The MBIC and MBEC values were determined by recording the fluorescence at 480 nm and 530 nm from the biofilms of GFP-expressing PAO1. Three replicates were run for each sample, the values were averaged and the error bars represent the standard deviation (±SD).
(§3) The methods to determine the MIC, MBIC and MBEC have been described in detail in our previous publication. The green fluorescent protein (GFP)-producing P. aeruginosa and S. aureus strains that were used in this work were also described in the earlier publication. Fluorescence detection was used as the main method to estimate the number of cells entrapped in the biofilm matrix. The methodology used for evaluation of the antibiofilm properties against an original Pseudomonas PA01 strain by crystal violet dye staining and the use of the Calgary biofilm device has been described elsewhere. The regular PA01 strain was provided by Dr. J. Harrison, Calgary. All measurements were carried out on an Eppendorf AF2200 plate reader. Every 96-well plate included controls for bacterial cell growth without peptide treatment and media alone. All measurements were carried out in triplicate, and the values in the figures represent the average and the error bars are standard deviation.

P. aeruginosa PAO1 GFP [2] = assay: MBIC, prevention of biofilm formation, GFP fluorescence method; format: cell-based, Pseudomonas aeruginosa; settings: Table 2, BM2 medium, mean of three biological replicates
Method: as §1, §2, §3

P. aeruginosa PAO1 GFP [3] = assay: MBEC, biofilm eradication, GFP fluorescence method; format: cell-based, Pseudomonas aeruginosa; settings: Table 2, BM2 medium, mean of three biological replicates
Method: as §1, §2, §3

S. aureus GFP [4] = assay: MIC against planktonic cells, absorbance at 600 nm; format: cell-based, Staphylococcus aureus; settings: Table 4; Sa GFP, 10% TSB and 0.1% glucose; absorbance 600 nm; mean of three biological replicates
Method: (§4) Figure 3 The MIC (A), MBIC (B) and MBEC (C) values for the tritrpticin analog peptides were assessed against Sa GFP. The MIC values were determined by measuring the absorbance of bacterial cells at 600 nm. The MBIC and MBEC values were determined by recording the fluorescence at 480 nm and 530 nm from the biofilms of GFP-expressing Sa. Three biological replicates were run for each test sample, and the mean was calculated for the recorded absorption or fluorescence values. In the graphs, the error bars represent the standard deviation (±SD).
as §3

S. aureus GFP [5] = assay: MBIC, GFP fluorescence method; format: cell-based, Staphylococcus aureus; settings: Table 4, Sa GFP, 10% TSB and 0.1% glucose, mean of three biological replicates
Method: as §4, §3

S. aureus GFP [6] = assay: MBEC, GFP fluorescence method; format: cell-based, Staphylococcus aureus; settings: Table 4, Sa GFP, 10% TSB and 0.1% glucose, mean of three biological replicates
Method: as §4, §3

S. aureus GFP [7] = format: cell-based, Staphylococcus aureus; settings: Table 4; Sa GFP; lowest concentration of peptide with no bacterial growth seen on the spot agar plate
From the text: as §3

P. aeruginosa PAO1 [8] = format: cell-based, Pseudomonas aeruginosa; settings: Table 5; regular PAO1 (no GFP), 1x BM2; absorbance 600 nm; mean of three biological replicates
Method: (§5) Figure 4 The MIC (A), MBIC (B) and MBRC (C) values for the peptides were assessed against P. aeruginosa PAO1 in the presence of 1× BM2. The inhibition of planktonic cells, the inhibition of biofilm cells and the reduction in biofilm cells were determined for the peptides by recording of the planktonic cells at 600 nm and quantification of biofilms formed by Pa PAO1 using crystal violet at 595 nm, respectively. Three biological replicates were run for each test sample, and the mean was calculated for the recorded absorption values. Data points with error bars indicate the standard deviation (±SD).
(§6) Figure 6 The MIC (A), MBIC (B) and MBEC (C) values for the tritrpticin-Lys derivatives against P. aeruginosa PAO1 were assessed by the crystal violet (CV) assay for the measurement of inhibition of biofilm formation and eradication of biofilm cells, respectively. The biofilm cells were rinsed, stained with 0.1% crystal violet for 15 min and then rinsed again. The CV was released from biofilm cells by the addition of 95% ethanol and quantified by reading on a spectrometer at 595 nm. Three replicates were run for each sample, the values were averaged and the error bars represent the standard deviation (±SD).
as §3

P. aeruginosa PAO1 [9] = format: cell-based; settings: for MBRC (CV at 595 nm) LD50: PAO1; for MBIC (CV at 595 nm) LD50 / MBIC (CV at 595 nm) LD90 / MBRC (CV at 595 nm) LD90: Table 5, PAO1, 1x BM2, crystal violet at 595 nm, mean of three biological replicates; for MBRC (CV at 595 nm) LD90: minimum biofilm reduction concentration
Method: (§7) We note the close agreement with the MBIC and MBEC values determined by the fluorescence and CV methods, similar to what we found in our previous work for an S. aureus MRSA strain [23]. We also re-evaluated the MBEC values that are measured using the Calgary biofilm device (CBD), where biofilms form on pegs, rather than at the bottom of the 96-well plates. […] In particular, we find that the single Pro9Ala Tritrp-P9A-substituted version has better MIC, MBIC and MBEC activities than the parent peptide as well as the Tritrp-P59A analog with both prolines substituted to Ala.
as §5, §6, §3

P. aeruginosa PAO1 [10] = format: cell-based, Pseudomonas aeruginosa; settings: Table 5; PAO1, 1x BM2; biofilms on pegs, cells plated and counted; three biological replicates
Method: as §7
Figure 5 The MBEC values for the peptides were assessed against P. aeruginosa PAO1 in the presence of 1× BM2 medium. The eradication of biofilm cells was determined for the peptides using the counting of biofilm cells formed by Pa PAO1. Three biological replicates were run for each test sample, and the mean was calculated for counted cell values. Data points with error bars indicate the standard deviation (±SD).
as §3

Row | Structure (SMILES) | MIC at 600 nm LD50 (P. aeruginosa PAO1 GFP [1]) [µM] | MIC at 600 nm LD90 (P. aeruginosa PAO1 GFP [1]) [µM] | MBIC at 488 and 530 nm LD50 (P. aeruginosa PAO1 GFP [2]) [µmol/L] | MBIC at 488 and 530 nm LD90 (P. aeruginosa PAO1 GFP [2]) [µmol/L] | MBEC at 488 and 530 nm LD50 (P. aeruginosa PAO1 GFP [3]) [µmol/L] | MBEC at 488 and 530 nm LD90 (P. aeruginosa PAO1 GFP [3]) [µmol/L] | MIC at 600 nm LD50 (S. aureus GFP [4]) [µM] | MIC at 600 nm LD90 (S. aureus GFP [4]) [µM] | MBIC at 488 and 530 nm LD50 (S. aureus GFP [5]) [µmol/L] | MBIC at 488 and 530 nm LD90 (S. aureus GFP [5]) [µmol/L] | MBEC at 488 and 530 nm LD50 (S. aureus GFP [6]) [µmol/L] | MBEC at 488 and 530 nm LD90 (S. aureus GFP [6]) [µmol/L] | MBC Agar Plate (S. aureus GFP [7]) [µM] | MIC at 600 nm LD50 (P. aeruginosa PAO1 [8]) [µM] | MIC at 600 nm LD90 (P. aeruginosa PAO1 [8]) [µM] | MBRC (CV at 595 nm) LD50 (P. aeruginosa PAO1 [9]) [µmol/L] | MBIC (CV at 595 nm) LD50 (P. aeruginosa PAO1 [9]) [µmol/L] | MBIC (CV at 595 nm) LD90 (P. aeruginosa PAO1 [9]) [µmol/L] | MBRC (CV at 595 nm) LD90 (P. aeruginosa PAO1 [9]) [µmol/L] | MBEC from Calgary Biofilm Device (CBD) LD50 (P. aeruginosa PAO1 [10]) [µmol/L] | also measured
1 | CC(C)C[C@H](NC(=O)[C@H](Cc1ccccc1)NC(=O)[C@@H]1CCCN1C(=O)[C@H](Cc1c[nH]c2ccccc12)NC(=O)[C@H](Cc1c[nH]c2ccccc12)NC(=O)[C@H](Cc1c[nH]c2ccccc12)NC(=O)[C@@H]1CCCN1C(=O)[C@H](Cc1ccccc1)NC(=O)[C@H](CCCCN)NC(=O)[C@H](CCCCN)NC(=O)[C@@H](N)C(C)C)C(=O)N[C@@H](CCCCN)C(=O)N[C@@H](CCCCN)C(N)=O [Tritrp-Lys] (H-VKKFPWWWPFLKK-NH2) | 32 (≈ 57.3 µg/mL) | 32 (≈ 57.3 µg/mL) | 16 | 32 | 64 | 64 | 1 (≈ 1.79 µg/mL) | 2 (≈ 3.58 µg/mL) | 2 | 2 | 1 | 2 | 4 (≈ 7.16 µg/mL) | 32 (≈ 57.3 µg/mL) | 32 (≈ 57.3 µg/mL) | 64 | 32 | 32 | 64 | 128 | MBEC from Calgary Biofilm Device (CBD) LD90 (P. aeruginosa PAO1 [10]): 128 µmol/L
2 | CC(C)C[C@H](NC(=O)[C@H](Cc1ccccc1)NC(=O)[C@@H]1CCCN1C(=O)[C@H](Cc1c[nH]c2ccccc12)NC(=O)[C@H](Cc1c[nH]c2ccccc12)NC(=O)[C@H](Cc1c[nH]c2ccccc12)NC(=O)[C@H](C)NC(=O)[C@H](Cc1ccccc1)NC(=O)[C@H](CCCNC(=N)N)NC(=O)[C@H](CCCNC(=N)N)NC(=O)[C@@H](N)C(C)C)C(=O)N[C@@H](CCCNC(=N)N)C(=O)N[C@@H](CCCNC(=N)N)C(N)=O [Tritrp-P5A] (H-VRRFAWWWPFLRR-NH2) | 4 (≈ 7.5 µg/mL) | 8 (≈ 15 µg/mL) | 4 | 8 | 64 | 64 | 1 (≈ 1.88 µg/mL) | 2 (≈ 3.75 µg/mL) | 1 | 4 | 2 | 4 | 4 (≈ 7.5 µg/mL) | 4 (≈ 7.5 µg/mL) | 8 (≈ 15 µg/mL) | 32 | 8 | 8 | 32 | 32 | MBEC from Calgary Biofilm Device (CBD) LD90 (P. aeruginosa PAO1 [10]): 128 µmol/L
3 | CC(C)C[C@H](NC(=O)[C@H](Cc1ccccc1)NC(=O)[C@H](C)NC(=O)[C@H](Cc1c[nH]c2ccccc12)NC(=O)[C@H](Cc1c[nH]c2ccccc12)NC(=O)[C@H](Cc1c[nH]c2ccccc12)NC(=O)[C@@H]1CCCN1C(=O)[C@H](Cc1ccccc1)NC(=O)[C@H](CCCCN)NC(=O)[C@H](CCCCN)NC(=O)[C@@H](N)C(C)C)C(=O)N[C@@H](CCCCN)C(=O)N[C@@H](CCCCN)C(N)=O [Tritrp-P9A-Lys] (H-VKKFPWWWAFLKK-NH2) | 4 (≈ 7.05 µg/mL) | 8 (≈ 14.1 µg/mL) | 8 | 8 | 4 | 64 | 1 (≈ 1.76 µg/mL) | 4 (≈ 7.05 µg/mL) | 2 | 4 | 1 | 8 | 8 (≈ 14.1 µg/mL) | 4 (≈ 7.05 µg/mL) | 8 (≈ 14.1 µg/mL) | 32 | 8 | 16 | 64 | 64 | MBEC from Calgary Biofilm Device (CBD) LD90 (P. aeruginosa PAO1 [10]): 64 µmol/L
